Reference: US20250019382A1, “NOVEL INHIBITORS OF CYCLIN-DEPENDENT KINASES” (Origenis Gmbh, priority 2021, published 2025)

target: T1, CDK9/CyclinT1 (Homo sapiens, UniProt P50750); experiment: CDK9/T1 ADPGlo kinase assay; assay type: biochemical; conditions: CDK9/CyclinT1 6 nM, ATP 10 microM, PDKtide 40 microM, 120 min RT
T1 construct: purchased ProQinase/Reaction Biology, USA #0371-0345-1
Experimental: The testing compound was evaluated in 12 concentrations in a 1:3 dilution series, starting from 5microM as the highest concentration.
In a white 384 microplate (Greiner bio-one, Austria #784904,) with 2 microL of 3-fold concentrated CDK9/CyclinT1 (ProQinase/Reaction Biology, USA #0371-0345-1, LOT.: 012), final concentration (f.c.) 6 nM, in 1×kinase buffer, 2 microL of compound (3× fold concentrated in f.c. 1.66% DMSO/H2O) was added and incubated at Room Temperature (RT) for 10 min. Then 2 microL of Substrate/ATP-Mix (3×PDKtide f.c. 40 microM, SignalChem Biotech, Canada via Biozol, Eching, Germany #P10-58, LOT.: L2230-7 and 3×UltraPure ATP f.c. 10 microM (ADP Glo Kinase assay, Promega GmbH, Germany #V9102)) were added, mixed and incubated for 120 min at RT.
After incubation time, 5 microL of ADP Glo reagent (ready to use, ADP Glo Kinase assay, Promega GmbH, Germany #V9102) were added, mixed and incubated for 40 min at RT.
In the last step, 10 microL of ADP Glo Detection reagent (ready to use, ADP Glo Kinase assay, Promega GmbH, Germany #V9102) were added, mixed and incubated for 30 min at RT.
GloMax Discover GM3000 Reader (Promega GmbH, Germany 9700000249) was used for the readout.
The inhibitor concentration was plotted against the luminescence to determine the IC50 using XLFit 5.5 (IDBS, Guildford) to fit to a sigmoidal dose response curve with a variable slope.

T1 sequence (P50750 whole entry): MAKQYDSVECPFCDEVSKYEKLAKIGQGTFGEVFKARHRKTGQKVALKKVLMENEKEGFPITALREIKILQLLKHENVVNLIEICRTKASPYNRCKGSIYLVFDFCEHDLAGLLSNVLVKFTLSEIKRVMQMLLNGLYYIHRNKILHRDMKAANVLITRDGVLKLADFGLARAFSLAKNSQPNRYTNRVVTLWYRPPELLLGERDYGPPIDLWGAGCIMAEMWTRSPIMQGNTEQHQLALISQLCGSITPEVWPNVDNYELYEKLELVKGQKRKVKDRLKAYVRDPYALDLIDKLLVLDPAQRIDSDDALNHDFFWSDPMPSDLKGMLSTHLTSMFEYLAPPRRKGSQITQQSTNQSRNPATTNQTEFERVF
T1 sequence (O60563 whole entry partner): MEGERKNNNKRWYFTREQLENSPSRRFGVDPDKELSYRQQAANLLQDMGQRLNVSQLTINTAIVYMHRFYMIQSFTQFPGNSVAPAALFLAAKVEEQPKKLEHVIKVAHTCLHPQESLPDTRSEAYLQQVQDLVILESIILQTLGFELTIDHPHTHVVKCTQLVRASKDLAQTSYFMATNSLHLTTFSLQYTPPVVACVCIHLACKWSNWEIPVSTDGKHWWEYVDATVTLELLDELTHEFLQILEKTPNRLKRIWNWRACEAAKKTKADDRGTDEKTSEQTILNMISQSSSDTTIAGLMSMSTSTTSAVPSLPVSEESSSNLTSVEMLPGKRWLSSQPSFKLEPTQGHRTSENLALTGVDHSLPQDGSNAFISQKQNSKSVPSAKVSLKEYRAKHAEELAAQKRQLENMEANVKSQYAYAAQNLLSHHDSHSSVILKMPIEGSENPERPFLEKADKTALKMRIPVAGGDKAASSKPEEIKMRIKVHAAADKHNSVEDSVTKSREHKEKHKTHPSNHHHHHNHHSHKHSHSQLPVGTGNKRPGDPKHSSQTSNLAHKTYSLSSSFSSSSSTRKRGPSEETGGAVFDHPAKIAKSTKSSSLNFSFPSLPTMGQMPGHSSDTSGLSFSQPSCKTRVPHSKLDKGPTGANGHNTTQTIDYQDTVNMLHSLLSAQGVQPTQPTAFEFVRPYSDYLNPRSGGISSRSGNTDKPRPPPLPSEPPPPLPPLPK

`Fc1cccc(F)c1-c1nc(NC2CCC(N3CCOCC3)CC2)n2nccc2n1` (centres unmarked) [Example #70, 2-(2,6-difluorophenyl)-N-((1r,4r)-4-morpholinocyclohexyl)pyrazolo[1,5-a][1,3,5]triazin-4-amine] and `Fc1cccc(Cl)c1-c1nc(N[C@H]2CC[C@H](N3CCOCC3)CC2)n2nccc2n1` [Example #76, 2-(2-chloro-6-fluorophenyl)-N-((1r,4r)-4-morpholinocyclohexyl)pyrazolo[1,5-a][1,3,5]triazin-4-amine] cannot be ordered by IC50: under 0.02 µM for the first, under 0.2 µM for the second.

`Fc1cccc(Cl)c1-c1nc(Nc2cnn(C3CCN(C4CCOCC4)CC3)c2)n2nccc2n1` [Example #71, 2-(2-chloro-6-fluorophenyl)-N-(1-(1-(tetrahydro-2H-pyran-4-yl)piperidin-4-yl)-1H-pyrazol-4-yl)pyrazolo[1,5-a][1,3,5]triazin-4-amine] and `Fc1cccc(Cl)c1-c1nc(Nc2cnn(C3CCN(C4CCOCC4)CC3)c2)n2ncc(Cl)c2n1` [Example #101, 8-chloro-2-(2-chloro-6-fluorophenyl)-N-(1-(1-(tetrahydro-2H-pyran-4-yl)piperidin-4-yl)-1H-pyrazol-4-yl)pyrazolo[1,5-a][1,3,5]triazin-4-amine] cannot be ordered by IC50: under 0.2 µM for the first, under 0.02 µM for the second.

`Fc1cccc(F)c1-c1nc(Nc2cnn(C3CCN(C4CCOCC4)CC3)c2Cl)n2nccc2n1` [Example #73, N-(5-chloro-1-(1-(tetrahydro-2H-pyran-4-yl)piperidin-4-yl)-1H-pyrazol-4-yl)-2-(2,6-difluorophenyl)pyrazolo[1,5-a][1,3,5]triazin-4-amine] and `Fc1cccc(F)c1-c1nc(Nc2cnn(C3CCN(C4CCOCC4)CC3)c2)n2ncc(Cl)c2n1` [Example #92, 8-chloro-2-(2,6-difluorophenyl)-N-(1-(1-(tetrahydro-2H-pyran-4-yl)piperidin-4-yl)-1H-pyrazol-4-yl)pyrazolo[1,5-a][1,3,5]triazin-4-amine] cannot be ordered by IC50: under 1 µM for the first, under 0.02 µM for the second.

`Fc1cccc(F)c1-c1nc(Nc2cnn(C3CCNCC3)c2)n2nccc2n1` [Example #74, 2-(2,6-difluorophenyl)-N-(1-(piperidin-4-yl)-1H-pyrazol-4-yl)pyrazolo[1,5-a][1,3,5]triazin-4-amine] and `Fc1cccc(F)c1-c1nc(Nc2cnn(C3CCNCC3)c2)n2ncc(Cl)c2n1` [Example #103, 8-chloro-2-(2,6-difluorophenyl)-N-(1-(piperidin-4-yl)-1H-pyrazol-4-yl)pyrazolo[1,5-a][1,3,5]triazin-4-amine] cannot be ordered by IC50: under 0.2 µM for the first, under 0.02 µM for the second.

`Cc1cnn2c(Nc3cnn(C4CCN(C5CCOCC5)CC4)c3)nc(-c3c(F)cccc3F)nc12` [Example #77, 2-(2,6-difluorophenyl)-8-methyl-N-(1-(1-(tetrahydro-2H-pyran-4-yl)piperidin-4-yl)-1H-pyrazol-4-yl)pyrazolo[1,5-a][1,3,5]triazin-4-amine] and `Fc1cccc(F)c1-c1nc(Nc2cnn(C3CCN(C4CCOCC4)CC3)c2)n2ncc(Br)c2n1` [Example #94, 8-bromo-2-(2,6-difluorophenyl)-N-(1-(1-(tetrahydro-2H-pyran-4-yl)piperidin-4-yl)-1H-pyrazol-4-yl)pyrazolo[1,5-a][1,3,5]triazin-4-amine] cannot be ordered by IC50: under 0.2 µM for the first, under 0.2 µM for the second.

`Fc1cccc(F)c1-c1nc(Nc2cnn(C3CCN(CC4CC4)CC3)c2)n2nccc2n1` [Example #80, N-(1-(1-(cyclopropylmethyl)piperidin-4-yl)-1H-pyrazol-4-yl)-2-(2,6-difluorophenyl)pyrazolo[1,5-a][1,3,5]triazin-4-amine] and `Fc1cccc(F)c1-c1nc(Nc2cnn(C3CCN(C4CC4)CC3)c2)n2nccc2n1` [Example #83, N-(1-(1-cyclopropylpiperidin-4-yl)-1H-pyrazol-4-yl)-2-(2,6-difluorophenyl)pyrazolo[1,5-a][1,3,5]triazin-4-amine] cannot be ordered by IC50: under 0.2 µM for the first, under 0.2 µM for the second.

`FCCN1CCC(n2cc(Nc3nc(-c4c(F)cccc4F)nc4ccnn34)cn2)CC1` [Example #81, 2-(2,6-difluorophenyl)-N-(1-(1-(2-fluoroethyl)piperidin-4-yl)-1H-pyrazol-4-yl)pyrazolo[1,5-a][1,3,5]triazin-4-amine] and `C=CCCN1CCC(n2cc(Nc3nc(-c4c(F)cccc4F)nc4ccnn34)cn2)CC1` [Example #87, N-(1-(1-(but-3-en-1-yl)piperidin-4-yl)-1H-pyrazol-4-yl)-2-(2,6-difluorophenyl)pyrazolo[1,5-a][1,3,5]triazin-4-amine] cannot be ordered by IC50: under 0.2 µM for the first, under 0.2 µM for the second.

`COC(=O)N1CCC(n2cc(Nc3nc(-c4c(F)cccc4F)nc4ccnn34)cn2)CC1` [Example #82, methyl-4-(4-((2-(2,6-difluorophenyl)pyrazolo[1,5-a][1,3,5]triazin-4-yl)amino)-1H-pyrazol-1-yl)piperidine-1-carboxylate] and `Fc1cccc(F)c1-c1nc(Nc2cnn(C3CCN(C4COC4)CC3)c2)n2nccc2n1` [Example #84, 2-(2,6-difluorophenyl)-N-(1-(1-(oxetan-3-yl)piperidin-4-yl)-1H-pyrazol-4-yl)pyrazolo[1,5-a][1,3,5]triazin-4-amine] cannot be ordered by IC50: under 1 µM for the first, under 1 µM for the second.

`N#Cc1cnn2c(Nc3cnn(C4CCN(C5CCOCC5)CC4)c3)nc(-c3c(F)cccc3F)nc12` [Example #88, 2-(2,6-difluorophenyl)-4-((1-(1-(tetrahydro-2H-pyran-4-yl)piperidin-4-yl)-1H-pyrazol-4-yl)amino)pyrazolo[1,5-a][1,3,5]triazine-8-carbonitrile] and `Fc1cccc(F)c1-c1nc(Nc2cnn(C3CCN(C4CC4)CC3)c2)n2ncc(Cl)c2n1` [Example #99, 8-chloro-N-(1-(1-cyclopropylpiperidin-4-yl)-1H-pyrazol-4-yl)-2-(2,6-difluorophenyl)pyrazolo[1,5-a][1,3,5]triazin-4-amine] cannot be ordered by IC50: under 0.2 µM for the first, under 0.2 µM for the second.

`N#Cc1cnn2c(N[C@H]3CC[C@H](N4CCOCC4)CC3)nc(-c3c(F)cccc3F)nc12` [Example #93, 2-(2,6-difluorophenyl)-4-(((1r,4r)-4-morpholinocyclohexyl)amino)pyrazolo[1,5-a][1,3,5]triazine-8-carbonitrile] and `Fc1cccc(F)c1-c1nc(N[C@H]2CC[C@H](N3CCOCC3)CC2)n2ncc(Br)c2n1` [Example #95, 8-bromo-2-(2,6-difluorophenyl)-N-((1r,4r)-4-morpholinocyclohexyl)pyrazolo[1,5-a][1,3,5]triazin-4-amine] cannot be ordered by IC50: under 0.2 µM for the first, under 0.02 µM for the second.

`CN1CCC(N2CCC(n3cc(Nc4nc(-c5c(F)cccc5F)nc5c(Cl)cnn45)cn3)CC2)CC1` [Example #96, 8-chloro-2-(2,6-difluorophenyl)-N-(1-(1′-methyl-[1,4′-bipiperidin]-4-yl)-1H-pyrazol-4-yl)pyrazolo[1,5-a][1,3,5]triazin-4-amine] and `Fc1cccc(F)c1-c1nc(Nc2cnn(C3CCN(CC4CC4)CC3)c2)n2ncc(Cl)c2n1` [Example #100, 8-chloro-N-(1-(1-(cyclopropylmethyl)piperidin-4-yl)-1H-pyrazol-4-yl)-2-(2,6-difluorophenyl)pyrazolo[1,5-a][1,3,5]triazin-4-amine] cannot be ordered by IC50: under 0.2 µM for the first, under 0.02 µM for the second.

`CC(C)(C)N1CCN(c2ccc(Nc3nc(-c4c(F)cccc4F)nc4c(Cl)cnn34)cc2)CC1` [Example #97, N-(4-(4-(tert-butyl)piperazin-1-yl)phenyl)-8-chloro-2-(2,6-difluorophenyl)pyrazolo[1,5-a][1,3,5]triazin-4-amine] and `O=C(c1ccc(Nc2nc(-c3c(F)cccc3F)nc3c(Cl)cnn23)cc1)N1CCOCC1` [Example #98, (4-((8-chloro-2-(2,6-difluorophenyl)pyrazolo[1,5-a][1,3,5]triazin-4-yl)amino)phenyl)(morpholino)methanone] cannot be ordered by IC50: under 0.2 µM for the first, under 1 µM for the second.

`Clc1cccc(Cl)c1-c1nc(Nc2cnn(C3CCN(C4CCOCC4)CC3)c2)n2ncc(Cl)c2n1` [Example #102, 8-chloro-2-(2,6-dichlorophenyl)-N-(1-(1-(tetrahydro-2H-pyran-4-yl)piperidin-4-yl)-1H-pyrazol-4-yl)pyrazolo[1,5-a][1,3,5]triazin-4-amine] and `Cn1cc(Nc2nc(-c3c(F)cccc3F)nc3c(Cl)cnn23)cn1` [Example #104, 8-chloro-2-(2,6-difluorophenyl)-N-(1-methyl-1H-pyrazol-4-yl)pyrazolo[1,5-a][1,3,5]triazin-4-amine] cannot be ordered by IC50: under 0.2 µM for the first, under 0.02 µM for the second.

`CCN(CCO)CCCC(C)Nc1nc(-c2c(F)cccc2F)nc2c(Cl)cnn12` (centres unmarked) [Example #107, 2-((4-((8-chloro-2-(2,6-difluorophenyl)pyrazolo[1,5-a][1,3,5]triazin-4-yl)amino)pentyl)(ethyl)amino)ethan-1-ol] and `N[C@H]1CC[C@@H](Nc2nc(-c3c(F)cccc3F)nc3c(Cl)cnn23)CC1` [Example #112, (1s,4s)-N1-(8-chloro-2-(2,6-difluorophenyl)pyrazolo[1,5-a][1,3,5]triazin-4-yl)cyclohexane-1,4-diamine] cannot be ordered by IC50: under 0.02 µM for the first, under 0.2 µM for the second.

`Fc1cccc(F)c1-c1nc(NC2CCC(N3CCOCC3)CC2)n2ncc(C(F)(F)F)c2n1` (centres unmarked) [Example #111, 2-(2,6-difluorophenyl)-N-((1r,4r)-4-morpholinocyclohexyl)-8-(trifluoromethyl)pyrazolo[1,5-a][1,3,5]triazin-4-amine] was tested, and the IC50 was under 0.2 µM.
